Values of other authors in patent publication US8883846B2, “Synthesis of bicyclic compounds and method for their use as therapeutic agents” (priority 2010, dated 2014).

Test system: influenza A H1N1 viruses, neuraminidase mutation Q136K
Details: Australian and South East Asian influenza A H1N1 viruses; cited from earlier work

Row | SMILES | reduction in susceptibility
1 | CC(=O)N[C@H]1[C@H]([C@H](O)[C@H](O)CO)OC(C(=O)O)=C[C@@H]1N=C(N)N [zanamivir] | 300 fold
2 | CCC(CC)[C@H](NC(C)=O)[C@@H]1[C@H](O)[C@@H](C(=O)O)C[C@H]1N=C(N)N [peramivir] | 70 fold
